Data on one substance can be found in patent publication US9057082B2, “Generation of methane from hydrocarbon bearing materials” (Transworld Technologies Inc., priority 2004, dated 2015).

The subject of this experiment is anaerobic microbial consortium or consortia indigenous to the coal. Briefly: Hydrogen gas accumulated in headspace of amended Dietz coal slurries. As to conditions: approximately 134 days of incubation. The source says: Core samples from the Tongue River area in the northwest portion of the Powder River Basin, Dietz coal seam, were utilized for these experiments. The core was collected in the field in a manner that prevented oxygen exposure by placing it into a steel canister that was purged with argon. Gas in the core used for the experiments described herein was extensively desorbed during long-term storage and previous use.
Coal samples were passed through a small jaw crusher twice resulting in pulverized coal (to yield a particle size similar to that of granulated sugar) that was measured into serum bottles (5 g per bottle); manipulations were carried out in an anaerobic environment. […]
Bromoethanesulfonic acid (BESA), a methanogen inhibitor, was added to selected incubations. […] Hydrogen production in the amended slurries relative to sterile coal slurries was measured to identify the degree of stimulation.
After approximately 134 days of incubation, all of the coal slurries were sampled for the aqueous phase (0.5 of 10 ml) and for gas analysis including hydrogen, methane, carbon dioxide, radioactive methane, and radioactive carbon dioxide. Methane and carbon dioxide were determined using a Hewlett Packard 5890 gas chromatograph equipped with a thermal conductivity detector. Radiolabeled methane and carbon dioxide were determined using a gas proportional counter (Innus Systems, Tampa, Fla.). […]

For Bromoethanesulfonic acid [BESA], the “hydrogen gas accumulation in the headspace, result in words” value was “Hydrogen accumulated to the greatest extent”.
